Experimental data as given in patent US12115224B2, “Polypeptide conjugates for intracellular delivery of stapled peptides” (Ohio State Innovation Foundation, priority 2017, dated 2024).
Bridge positions count the residues as written; N and C are the ends. Square brackets hold non-standard residues; d marks the D form. Peptide text beside a SMILES is read from it. I, II: the chains in the order shown. 2Nal = N[C@@H](Cc1ccc2ccccc2c1)C(=O)O; NF = 5(6)-carboxynaphthofluorescein; AEEA = NCCOCCOCC(=O)O; βAla = NCCC(=O)O

Columns and labels:
[1] = cited from earlier work
[2] = Aqueous solubility (observation)
[3] = tested on: SJSA-1 cells; assay: Annexin V/propidium iodide flow cytometry assay; type: cell-based; conditions: 48-hour treatment, 10% FBS
Protocol: The percentage of Annexin V+/PI+ and Annexin V+/PI− SJSA-1 cells after 48-hour treatment of inhibitors in presence of 10% FBS was measured.
The mode of action (MOA) of CPP9-sPDI upon cytosolic delivery of the MDM2 inhibitor was also considered. […] This behavior is similar to Nutlin-3a, which is known to induce p53-dependent apoptosis in certain cancer cell lines. In this study, the percentage of Annexin V+/PI+ and Annexin V+/PI− SJSA-1 cells is determined after 48-hour treatment of inhibitors in presence of 10% FBS.

[4] = Anti-proliferation MTT assay, SJSA-1; type: cell-based; conditions: 72-hour treatment, 0-20 μM, 10% FBS, read-out: IC50 (cytotoxicity)
Protocol: IC50 values (μM) are provided for each test compound.
In addition, the anti-proliferative effects of CPP9-sPDI (structure 23) were evaluated. FIG. 23 compares the effects of CPP9-sPDI, Nutlin-3a, R9-sPDI, sPDI, CPP9-sPDI(F10A) and Tat-sPDI (0-20 μM) on the viability of SJSA-1 cell line after 72-hour treatment in the presence of 10% FBS as measured by MTT assay.

[5] = tested on: HeLa cells; assay: Live-cell confocal microscopy of FITC-labeled peptides; type: cell-based; conditions: 5 μM FITC-labeled peptide, 2 h, 37° C.
Protocol: HeLa cells were treated with 5 μM FITC-labeled peptide for 2 h at 37° C., washed to remove excess peptide, and subjected to live-cell confocal microscopy. I, DIC; II, GFP channel; and III, overlap of I and II.
Four pairs of the peptides from Table 6 were also labeled with FITC and their entry into HeLa cells were monitored by live-cell confocal microscopy (FIG. 4).
To assess delivery aptitude of each conjugate, peptides 22-25 were labeled with FITC and their entry into HeLa cells was monitored by live-cell confocal microscopy (FIG. 21). HeLa cells were treated with 5 μM FITC-labeled peptide for 2 h at 37° C. and washed to remove excess peptide.

[6] = Serum stability in 25% human serum; type: in vitro ADME; conditions: 37° C., read-out: compound detected at the end of the study
Protocol: FIG. 25 is a graph showing the stability of CPP9-sPDI (structure 23) in 25% human serum at 37° C.
The serum stability of CPP9-sPDI was evaluated by incubating the conjugate in 25% human serum at 37° C. over 24 hours. […] The observed level of serum stability (cargo region) may impact the IC50 values measured for this compound.

In the case of 5(6)-carboxynaphthofluorescein [NF], the pKa [1] is given as 7.8.

In the case of “NF-βA-TYRGAAQCAAQCVREV-NH2 ({NF-βAla}-TYRGAAQCAAQCVREV-NH2; bridge 8-12; not fully specified (bridges)) [Peptide 20]”, the aqueous solubility [2] is reported as “limited solubility”.

For `CC(=O)N[C@@H](CC(C)C)C(=O)N[C@H](C(=O)N[C@@H](Cc1ccccc1)C(=O)N[C@H]1CC(=O)NCCCC[C@@H](C(=O)N[C@@H](CCC(N)=O)C(=O)N[C@@H](CC(C)C)C(=O)N[C@H](C(=O)N[C@@H](CO)C(=O)NCCOCCOCC(=O)N[C@@H](CCCCNC(=O)CC[C@@H]2NC(=O)[C@@H](CCCNC(=N)N)NC(=O)[C@H](CCCNC(=N)N)NC(=O)[C@@H](CCCNC(=N)N)NC(=O)[C@H](CCCNC(=N)N)NC(=O)[C@H](Cc3ccc4ccccc4c3)NC(=O)[C@@H](Cc3ccccc3)NC2=O)C(N)=O)[C@@H](C)O)NC(=O)[C@H](Cc2c[nH]c3ccccc23)NC(=O)[C@H](Cc2ccc(O)cc2)NC(=O)[C@H](Cc2c[nH]cn2)NC1=O)[C@@H](C)O` [Peptide 23] (I: Ac-LTFDHYWKQLTS[AEEA]K-NH2 / II: cyclo([2Nal]R[dR]R[dR]E[dF]); lactam I:4-I:8; amide I:14-II:6), the “mode of anti-proliferative action (Annexin V+/PI+ and Annexin V+/PI− cells)” value [3] was “mediated by apoptotic pathways”.

With `CC(=O)N[C@@H](CC(C)C)C(=O)N[C@H](C(=O)N[C@@H](Cc1ccccc1)C(=O)N[C@H]1CC(=O)NCCCC[C@@H](C(=O)N[C@@H](CCC(N)=O)C(=O)N[C@@H](CC(C)C)C(=O)N[C@H](C(=O)N[C@@H](CO)C(=O)NCCOCCOCC(=O)N[C@@H](CCCCNC(=O)CC[C@@H]2NC(=O)[C@@H](CCCNC(=N)N)NC(=O)[C@H](CCCNC(=N)N)NC(=O)[C@@H](CCCNC(=N)N)NC(=O)[C@H](CCCNC(=N)N)NC(=O)[C@H](Cc3ccc4ccccc4c3)NC(=O)[C@@H](Cc3ccccc3)NC2=O)C(N)=O)[C@@H](C)O)NC(=O)[C@H](Cc2c[nH]c3ccccc23)NC(=O)[C@H](Cc2ccc(O)cc2)NC(=O)[C@H](Cc2cnc[nH]2)NC1=O)[C@@H](C)O` [Peptide 23] (I: Ac-LTFDHYWKQLTS[AEEA]K-NH2 / II: cyclo([2Nal]R[dR]R[dR]E[dF]); lactam I:4-I:8; amide I:14-II:6) the IC50 [4] was 3.86 µM, the “cellular uptake by confocal microscopy” value [5] was “most effective conjugate for delivering sPDI” and the remaining at 24 h [6] was 25%.
